One compound from paper PMC9785492 (Viruses, 2022) can be followed below.

In the assay the test system is A/PR/8/34 with NA-H274Y. It counts as cell-based, Influenza A virus (H1N1).

Regarding `COC(=O)C1=C(C)NC(C)=C(C(=O)OCC(C)C)C1c1ccccc1[N+](=O)[O-]` (stereo not shown) [Nisoldipine], the IC50 was found to be 5.94 ± 0.55 µM.
